Measured values published in patent US11787762B2, “Tetralin and tetrahydroquinoline compounds as inhibitors of HIF-2alpha” (ARCUS BIOSCIENCES, INC., priority 2020, dated 2023).

Each molecule was assayed against T1, HIF-2α (Homo sapiens, UniProt Q99814) (assay: HIF-2α luciferase reporter assay in HIF-Luc-786-O cells). Settings: Table 1, 20 hours incubation.
T1 construct: host or cells: 786-O cells stably transduced with Cignal Lenti HIF Luc Reporter (only the reporter was introduced, not HIF-2α)
Assay type: cell-based
Procedure: Generation of HIF-2α Luciferase 786-O Cell Line:
Stable cell lines were generated by transducing 786-O cells (ATCC, CRL-1932) with Cignal Lenti HIF Luc Reporter lentivirus (CLS-007 L, Qiagen) according to the manufacturer's guidelines. In brief, 0.3×10^6 786-0 cells were transduced with lentivirus at a Multiplicity of Infection (MOI) of 25 for 24 hours. After transduction, cells were replenished with fresh RPMI 1640 Medium (Cat. No. 11875085, Thermo Fisher,) supplemented with 10% FBS (Cat. No. A3160502, Gibco), 2 mM GlutaMax (Cat. No. 35050-061, Invitrogen) and 100 units of penicillin and 100 μg of streptomycin/mL (Cat. No 15070063, Thermo Fisher) for another 24 hours. Antibiotic selection was performed in cell media containing 4 μg/mL of Puromycin. After 7 days of antibiotic selection, stable pools of surviving cells were expanded and used in a luciferase reporter assay.
HIF-2α Luciferase Reporter Assay:
On day one, 20 uL of HIF-Luc-786-0 cells in OptiMem (Cat. No. 31985088, Thermo Fisher) were seeded into each well of a 384 well white opaque plate (Corning 3570) and incubated at 37° C. and 5% CO2. Twenty microliters of 2× test compounds in OptiMem were added to cells after 4 hours of incubation. Final assay conditions comprised 20,000 cells per well in 1% DMSO with test compound concentrations ranging from 50 uM to 0 uM. After 20 hours incubation at 37° C. and 5% CO2, luciferase activity was determined using ONE-Glo Luciferase Assay Reagent (E6110, Promega) following the manufacture's recommended procedure. Briefly, 40 uL of ONE-Glo luciferase reagents were added to each well and luciferase signals were measured using an Envision 2102 Multilabel Reader. Percentage maximum activity in each test well was calculated based on DMSO (maximum activity) and no cell control wells (baseline activity). The IC50 values of the test compounds were determined from compound dose response curves fitted using a standard four parameter fit equation.

T1 sequence (Q99814 whole entry): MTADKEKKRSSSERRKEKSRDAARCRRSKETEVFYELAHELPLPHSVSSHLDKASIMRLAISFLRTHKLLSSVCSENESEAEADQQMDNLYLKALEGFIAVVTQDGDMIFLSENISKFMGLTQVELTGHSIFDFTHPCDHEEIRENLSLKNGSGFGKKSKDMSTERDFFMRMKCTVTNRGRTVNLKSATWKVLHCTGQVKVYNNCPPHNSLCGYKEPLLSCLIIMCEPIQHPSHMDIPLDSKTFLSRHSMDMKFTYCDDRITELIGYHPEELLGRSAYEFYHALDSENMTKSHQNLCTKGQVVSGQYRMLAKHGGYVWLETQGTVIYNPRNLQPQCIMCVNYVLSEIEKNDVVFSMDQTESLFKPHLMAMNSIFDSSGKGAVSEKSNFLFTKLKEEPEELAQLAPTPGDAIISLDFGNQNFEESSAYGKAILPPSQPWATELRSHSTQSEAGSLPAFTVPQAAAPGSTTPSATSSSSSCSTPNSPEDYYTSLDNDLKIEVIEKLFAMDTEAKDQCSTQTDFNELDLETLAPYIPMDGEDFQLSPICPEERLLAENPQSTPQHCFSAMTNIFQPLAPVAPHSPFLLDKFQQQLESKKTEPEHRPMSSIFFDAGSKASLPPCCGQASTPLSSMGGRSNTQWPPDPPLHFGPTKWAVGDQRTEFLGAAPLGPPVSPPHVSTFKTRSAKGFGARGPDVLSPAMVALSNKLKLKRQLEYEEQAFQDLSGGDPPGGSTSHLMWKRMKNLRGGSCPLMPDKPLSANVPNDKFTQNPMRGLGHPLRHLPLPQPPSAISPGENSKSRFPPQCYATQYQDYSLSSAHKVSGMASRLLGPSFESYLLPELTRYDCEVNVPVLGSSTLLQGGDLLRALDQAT

Q: How did the IC50 turn out when O=[N+]([O-])c1cc(S(=O)(=O)C(F)(F)F)ccc1N1CCOc2ccc(Cl)cc21 [Example 82] was run?
A: Its IC50 is greater than 1000 nM.

Same assay, conditions: Table 3, 20 hours incubation

Q: How did the IC50 turn out when N#Cc1cc(F)cc2c1[C@@H](c1ccc(-c3scnc3CO)c3c1CC(F)(F)[C@H]3O)CC[C@@H]2F [Example 191, (5S,8R)-8-[(1S)-2,2-difluoro-1-hydroxy-7-[4-(hydroxymethyl)-1,3-thiazol-5-yl]-1,3-dihydroinden-4-yl]-3,5-difluoro-5,6,7,8-tetrahydronaphthalene-1-carbonitrile] was run?
A: Its IC50 is less than 100 nM.

Q: How did the IC50 turn out when Cc1ncc(-c2c(F)cc([C@H]3CC[C@H](F)c4cc(F)cc(C#N)c43)c3c2[C@H](O)C(F)(F)C3)c(N)n1 [Example 205, (5S,8R)-8-[(1S)-7-(4-amino-2-methylpyrimidin-5-yl)-2,2,6-trifluoro-1-hydroxy-2,3-dihydro-1H-inden-4-yl]-3,5-difluoro-5,6,7,8-tetrahydronaphthalene-1-carbonitrile] was run?
A: The IC50 was less than 100 nM.

Q: With N#Cc1cc(F)cc2c1[C@@H](c1ccc(-c3cccc4cn[nH]c34)c3c1CC(F)(F)[C@H]3O)CC[C@@H]2F [Example 187, (5S,8R)-8-[(1S)-2,2-difluoro-1-hydroxy-7-(1H-indazol-7-yl)-1,3-dihydroinden-4-yl]-3,5-difluoro-5,6,7,8-tetrahydronaphthalene-1-carbonitrile] as the molecule, how does the IC50 read?
A: The IC50 was less than 100 nM.

Q: How did the IC50 turn out when Cc1nc(S(C)(=O)=O)ccc1-c1ccc([C@H]2CC[C@H](F)c3cc(F)cc(C#N)c32)c2c1[C@H](O)C(F)(F)C2 [Example 198, (5S,8R)-8-[(1S)-2,2-difluoro-1-hydroxy-7-(2-methyl-6-methylsulfonylpyridin-3-yl)-1,3-dihydroinden-4-yl]-3,5-difluoro-5,6,7,8-tetrahydronaphthalene-1-carbonitrile] was run?
A: Its IC50 is 100 to 1000 nM.

Q: How did the IC50 turn out when N#Cc1cc(F)cc2c1[C@@H](c1ccc(-c3cccnc3)c3c1CC(F)(F)[C@H]3O)CC[C@@H]2F [Example 160, (5S,8R)-8-[(1S)-2,2-difluoro-1-hydroxy-7-pyridin-3-yl-1,3-dihydroinden-4-yl]-3,5-difluoro-5,6,7,8-tetrahydronaphthalene-1-carbonitrile] was run?
A: Its IC50 is less than 100 nM.

Q: Which IC50 does the source give for N#Cc1cc(F)cc2c1[C@@H](c1ccc(-c3cnc4c(N)cccn34)c3c1CC(F)(F)[C@H]3O)CC[C@@H]2F [Example 230, (5S,8R)-8-[(1S)-7-(8-aminoimidazo[1,2-a]pyridin-3-yl)-2,2-difluoro-1-hydroxy-1,3-dihydroinden-4-yl]-3,5-difluoro-5,6,7,8-tetrahydronaphthalene-1-carbonitrile] here?
A: Its IC50 is less than 100 nM.

Q: N#Cc1cc(F)cc2c1[C@@H](c1ccc(Nc3ccccn3)c3c1CC(F)(F)[C@H]3O)CC[C@@H]2F [Example 200, (5S,8R)-8-[(1S)-2,2-difluoro-1-hydroxy-7-(pyridin-2-ylamino)-1,3-dihydroinden-4-yl]-3,5-difluoro-5,6,7,8-tetrahydronaphthalene-1-carbonitrile] was tested. Which IC50 did it give?
A: The IC50 was 100 to 1000 nM.

Q: How did the IC50 turn out when Cc1nc(N)cnc1-c1ccc([C@H]2CC[C@H](F)c3cc(F)cc(C#N)c32)c2c1[C@H](O)C(F)(F)C2 [Example 179, (5S,8R)-8-[(1S)-7-(5-amino-3-methylpyrazin-2-yl)-2,2-difluoro-1-hydroxy-1,3-dihydroinden-4-yl]-3,5-difluoro-5,6,7,8-tetrahydronaphthalene-1-carbonitrile] was run?
A: Its IC50 is less than 100 nM.

Q: How did the IC50 turn out when Cc1ccc([C@H]2CC[C@H](F)c3cc(F)cc(C#N)c32)c2c1[C@H](O)C(F)(F)C2 [Example 225, (5S,8R)-8-[(1S)-2,2-difluoro-1-hydroxy-7-methyl-1,3-dihydroinden-4-yl]-3,5-difluoro-5,6,7,8-tetrahydronaphthalene-1-carbonitrile] was run?
A: Its IC50 is less than 100 nM.

Q: With Cc1nc(C)c(-c2ccc([C@H]3CC[C@H](F)c4cc(F)cc(C#N)c43)c3c2[C@H](O)C(F)(F)C3)s1 [Example 193, (5S,8R)-8-[(1S)-7-(2,4-dimethyl-1,3-thiazol-5-yl)-2,2-difluoro-1-hydroxy-1,3-dihydroinden-4-yl]-3,5-difluoro-5,6,7,8-tetrahydronaphthalene-1-carbonitrile] as the molecule, how does the IC50 read?
A: The IC50 was less than 100 nM.

Q: For Cc1nc(C#N)ncc1-c1c(F)cc([C@H]2CC[C@H](F)c3cc(F)cc(C#N)c32)c2c1[C@H](O)C(F)(F)C2 [Example 206, 5-[(3S)-7-[(1R,4S)-8-cyano-4,6-difluoro-1,2,3,4-tetrahydronaphthalen-1-yl]-2,2,5-trifluoro-3-hydroxy-2,3-dihydro-1H-inden-4-yl]-4-methylpyrimidine-2-carbonitrile], which IC50 is on record?
A: The IC50 was less than 100 nM.

Q: For N#Cc1cc(F)cc2c1[C@@H](c1ccc(C#N)c3c1CC(F)(F)[C@H]3O)CC[C@@H]2F [Example 201, (5S,8R)-8-[(1S)-7-cyano-2,2-difluoro-1-hydroxy-1,3-dihydroinden-4-yl]-3,5-difluoro-5,6,7,8-tetrahydronaphthalene-1-carbonitrile], which IC50 is on record?
A: The IC50 was less than 100 nM.

Q: CS(=O)(=O)c1c(N)cc([C@H]2CC[C@H](F)c3cc(F)cc(C#N)c32)c2c1[C@H](O)[C@H](F)C2 [Example 212, (5S,8R)-8-[(1S,2R)-6-amino-2-fluoro-1-hydroxy-7-methylsulfonyl-2,3-dihydro-1H-inden-4-yl]-3,5-difluoro-5,6,7,8-tetrahydronaphthalene-1-carbonitrile] was tested. Which IC50 did it give?
A: Its IC50 is less than 100 nM.

Q: With N#Cc1cc(F)cc2c1[C@@H](c1ccc(-c3ncncc3N)c3c1CC(F)(F)[C@H]3O)CC[C@@H]2F [Example 181, (5S,8R)-8-[(1S)-7-(5-aminopyrimidin-4-yl)-2,2-difluoro-1-hydroxy-1,3-dihydroinden-4-yl]-3,5-difluoro-5,6,7,8-tetrahydronaphthalene-1-carbonitrile] as the molecule, how does the IC50 read?
A: Its IC50 is 100 to 1000 nM.

Q: Which IC50 does the source give for N#Cc1ccc(-c2ccc([C@H]3CC[C@H](F)c4cc(F)cc(C#N)c43)c3c2[C@H](O)C(F)(F)C3)c(N)c1 [Example 197, (5S,8R)-8-[(1S)-7-(2-amino-4-cyanophenyl)-2,2-difluoro-1-hydroxy-1,3-dihydroinden-4-yl]-3,5-difluoro-5,6,7,8-tetrahydronaphthalene-1-carbonitrile] here?
A: Its IC50 is less than 100 nM.

Q: How did the IC50 turn out when Cn1cc(-c2c(F)cc([C@H]3CC[C@H](F)c4cc(F)cc(C#N)c43)c3c2[C@H](O)C(F)(F)C3)nn1 [Example 202, (5S,8R)-3,5-Difluoro-8-[(1S)-2,2,6-trifluoro-1-hydroxy-7-(1-methyltriazol-4-yl)-1,3-dihydroinden-4-yl]-5,6,7,8-tetrahydronaphthalene-1-carbonitrile] was run?
A: Its IC50 is less than 100 nM.

Q: For Cc1ccc(-c2ccc([C@H]3CC[C@H](F)c4cc(F)cc(C#N)c43)c3c2[C@H](O)C(F)(F)C3)c(N)c1 [Example 195, (5S,8R)-8-[(1S)-7-(2-amino-4-methylphenyl)-2,2-difluoro-1-hydroxy-1,3-dihydroinden-4-yl]-3,5-difluoro-5,6,7,8-tetrahydronaphthalene-1-carbonitrile], which IC50 is on record?
A: The IC50 was less than 100 nM.

Q: Cc1[nH]c(=O)ccc1-c1ccc([C@H]2CC[C@H](F)c3cc(F)cc(C#N)c32)c2c1[C@H](O)C(F)(F)C2 [Example 161, (5S,8R)-8-[(1S)-2,2-difluoro-1-hydroxy-7-(2-methyl-6-oxo-1H-pyridin-3-yl)-1,3-dihydroinden-4-yl]-3,5-difluoro-5,6,7,8-tetrahydronaphthalene-1-carbonitrile] was tested. Which IC50 did it give?
A: The IC50 was 100 to 1000 nM.

Q: For N#Cc1cc(F)cc2c1[C@@H](c1ccc(-c3cccc(F)c3N)c3c1CC(F)(F)[C@H]3O)CC[C@@H]2F [Example 229, (5S,8R)-8-[(1S)-7-(2-amino-3-fluorophenyl)-2,2-difluoro-1-hydroxy-1,3-dihydroinden-4-yl]-3,5-difluoro-5,6,7,8-tetrahydronaphthalene-1-carbonitrile], which IC50 is on record?
A: Its IC50 is less than 100 nM.

Q: Which IC50 does the source give for CS(=O)(=O)c1ccc([C@H]2CC[C@H](F)c3cc(F)cc(C#N)c32)c2c1[C@H](O)[C@@](F)(C#N)C2 [Example 247, (5S,8R)-8-[(1S,2S)-2-cyano-2-fluoro-1-hydroxy-7-methylsulfonyl-1,3-dihydroinden-4-yl]-3,5-difluoro-5,6,7,8-tetrahydronaphthalene-1-carbonitrile] here?
A: The IC50 was less than 100 nM.

Q: Which IC50 does the source give for Cn1cncc1-c1c(F)cc([C@H]2C[C@H](F)[C@H](F)c3cc(F)cc(C#N)c32)c2c1[C@H](O)C(F)(F)C2 [Example 208, (5R,6S)-3,5,6-trifluoro-8-[(1S)-2,2,6-trifluoro-1-hydroxy-7-(1-methyl-1H-imidazol-5-yl)-2,3-dihydro-1H-inden-4-yl]-5,6,7,8-tetrahydronaphthalene-1-carbonitrile] here?
A: The IC50 was less than 100 nM.

Q: For Cc1ncn(C)c1-c1ccc([C@H]2CC[C@H](F)c3cc(F)cc(C#N)c32)c2c1[C@H](O)C(F)(F)C2 [Example 232, (5S,8R)-8-[(1S)-7-(3,5-dimethylimidazol-4-yl)-2,2-difluoro-1-hydroxy-1,3-dihydroinden-4-yl]-3,5-difluoro-5,6,7,8-tetrahydronaphthalene-1-carbonitrile], which IC50 is on record?
A: The IC50 was less than 100 nM.
